Patent publication US8163793B2, “Proline derivatives” (Hoffman-La Roche Inc., priority 2009, dated 2012)

Tests used:
[1] = target: Cathepsin S (UniProt P25774); test: Cathepsin enzyme inhibition assay (fluorogenic peptide substrate Z-Val-Val-Arg-AMC), Cathepsin S; type: biochemical, human and mouse; settings: enzyme 1 nM, substrate 20 μM, pH 6.5; read-out: CatS IC50
How it was run: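 Compounds were combined with 1 nM human or mouse enzyme, and substrate then started the reaction. The buffer was potassium phosphate (100 mM, pH 6.5) containing EDTA-Na 5 mM, Triton X-100 0.001% and […] 5 mM.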

[2] = target: Cat L (UniProt P07711); test: Cathepsin enzyme inhibition assay (fluorogenic peptide substrate Z-Val-Val-Arg-AMC), Cathepsin L; type: biochemical, human and mouse; settings: enzyme 1 nM, substrate 20 μM, pH 6.5; read-out: CatL IC50
How it was run: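 Fluorogenic cleavage of Z-Val-Val-Arg-AMC (20 μM) by 1 nM Cat L was monitored at ex 360/em 465 nm for 20 min, the linear phase. The buffer was 100 mM potassium phosphate pH 6.5 with 5 mM EDTA and DTT. IC50 values were derived by standard methods, in μM.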

| Compound | IC50 [1] | IC50 [2] |
| --- | --- | --- |
| Cc1cc(N2C[C@H](S(=O)(=O)c3ccccc3C(F)(F)F)C[C@H]2C(=O)NC2(C#N)CC2)n(C)n1 [Example 300, (2S,4R)-1-(2,5-Dimethyl-2H-pyrazol-3-yl)-4-(2-trifluoromethyl-benzenesulfonyl)-pyrrolidine-2-carboxylic acid (1-cyano-cyclopropyl)-amide] | 0.885 nM | 50700 nM |
| N#CC1(NC(=O)[C@@H]2C[C@@H](S(=O)(=O)c3ccc(N4CCn5cnnc5C4)cc3Cl)CN2C(=O)C2(C(F)(F)F)CC2)CC1 [Example 301, (2S,4R)-4-[2-Chloro-4-(5,6-dihydro-8H-[1,2,4]triazolo[4,3-a]pyrazin-7-yl)-benzenesulfonyl]-1-(1-trifluoromethyl-cyclopropanecarbonyl)-pyrrolidine-2-carboxylic acid (1-cyano-cyclopropyl)-amide] | 0.12 nM | 1540 nM |
| N#CC1(NC(=O)[C@@H]2C[C@@H](S(=O)(=O)c3ccc(OCC(F)(F)F)cc3Cl)CN2C(=O)C2(c3ccc(Cl)cc3)CCCC2)CC1 [Example 302, (2S,4R)-1-[1-(4-Chloro-phenyl)-cyclopentanecarbonyl]-4-[2-chloro-4-(2,2,2-trifluoro-ethoxy)-benzenesulfonyl]-pyrrolidine-2-carboxylic acid (1-cyano-cyclopropyl)-amide] | 0.03 nM | 575 nM |
| N#CC1(NC(=O)[C@@H]2C[C@@H](S(=O)(=O)c3ccc(OCC(F)(F)F)cc3Cl)CN2C(=O)C2(c3ccccc3)CCCCC2)CC1 [Example 303, (2S,4R)-4-[2-Chloro-4-(2,2,2-trifluoro-ethoxy)-benzenesulfonyl]-1-(1-phenyl-cyclohexanecarbonyl)-pyrrolidine-2-carboxylic acid (1-cyano-cyclopropyl)-amide] | 0.03 nM | 1480 nM |
| Cc1ccc(C2(C(=O)N3C[C@H](S(=O)(=O)c4ccc(OCC(F)(F)F)cc4Cl)C[C@H]3C(=O)NC3(C#N)CC3)CC2)cc1 [Example 304, (2S,4R)-4-[2-Chloro-4-(2,2,2-trifluoro-ethoxy)-benzenesulfonyl]-1-(1-p-tolyl-cyclopropanecarbonyl)-pyrrolidine-2-carboxylic acid (1-cyano-cyclopropyl)-amide] | 0.445 nM | 805 nM |
| Cc1cc(N2C[C@H](S(=O)(=O)c3ccc(OCC(F)(F)F)cc3C(F)(F)F)C[C@H]2C(=O)NC2(C#N)CC2)n(-c2ccc(C(F)(F)F)cc2)n1 [Example 306, (2S,4R)-1-[5-Methyl-2-(4-trifluoromethyl-phenyl)-2H-pyrazol-3-yl]-4-[4-(2,2,2-trifluoro-ethoxy)-2-trifluoromethyl-benzenesulfonyl]-pyrrolidine-2-carboxylic acid (1-cyano-cyclopropyl)-amide] | 0.555 nM | 64500 nM |
| Cc1cc(N2C[C@H](S(=O)(=O)c3ccccc3C(F)(F)F)C[C@H]2C(=O)NC2(C#N)CC2)n(C2CCOCC2)n1 [Example 307, (2S,4R)-1-[5-Methyl-2-(tetrahydro-pyran-4-yl)-2H-pyrazol-3-yl]-4-(2-trifluoromethyl-benzenesulfonyl)-pyrrolidine-2-carboxylic acid (1-cyano-cyclopropyl)-amide] | 0.205 nM | 52100 nM |
| N#CC1(NC(=O)[C@@H]2C[C@@H](S(=O)(=O)c3ccc(OCC(F)(F)F)cc3Cl)CN2C(=O)C2(c3ccc(C(F)(F)F)cc3)CC2)CC1 [Example 310, (2S,4R)-4-[2-Chloro-4-(2,2,2-trifluoro-ethoxy)-benzenesulfonyl]-1-[1-(4-trifluoromethyl-phenyl)-cyclopropanecarbonyl]-pyrrolidine-2-carboxylic acid (1-cyano-cyclopropyl)-amide] | 0.26 nM | 220 nM |
| N#CC1(NC(=O)[C@@H]2C[C@@H](S(=O)(=O)c3ccc(OCC(F)(F)F)cc3Cl)CN2C(=O)C2(c3cccc(C(F)(F)F)c3)CC2)CC1 [Example 311, (2S,4R)-4-[2-Chloro-4-(2,2,2-trifluoro-ethoxy)-benzenesulfonyl]-1-[1-(3-trifluoromethyl-phenyl)-cyclopropanecarbonyl]-pyrrolidine-2-carboxylic acid (1-cyano-cyclopropyl)-amide] | 0.155 nM | 745 nM |
| N#CC1(NC(=O)[C@@H]2C[C@@H](S(=O)(=O)c3ccccc3Cl)CN2S(=O)(=O)c2ccc3ccccc3c2)CC1 [Example 313, (2S,4R)-4-(2-Chloro-benzenesulfonyl)-1-(naphthalene-2-sulfonyl)-pyrrolidine-2-carboxylic Acid (1-cyano-cyclopropyl)-amide] | 0.46 nM | 1390 nM |
| N#CC1(NC(=O)[C@@H]2C[C@@H](S(=O)(=O)c3ccc(OCC(F)(F)F)cc3Cl)CN2C(=O)C2(c3ccc(Cl)cc3)CCCCC2)CC1 [Example 314, (2S,4R)-1-[1-(4-Chloro-phenyl)-cyclohexanecarbonyl]-4-[2-chloro-4-(2,2,2-trifluoro-ethoxy)-benzenesulfonyl]-pyrrolidine-2-carboxylic acid (1-cyano-cyclopropyl)-amide] | 0.37 nM | 1680 nM |
| N#CC1(NC(=O)[C@@H]2C[C@@H](S(=O)(=O)c3ccccc3Cl)CN2S(=O)(=O)c2ccc(Cl)cc2)CC1 [Example 315, (2S,4R)-4-(2-Chloro-benzenesulfonyl)-1-(4-chloro-benzenesulfonyl)-pyrrolidine-2-carboxylic Acid (1-cyano-cyclopropyl)-amide] | 0.39 nM | 2500 nM |
| N#CC1(NC(=O)[C@@H]2C[C@@H](S(=O)(=O)c3ccccc3Cl)CN2S(=O)(=O)c2ccc(-c3ccccc3)cc2)CC1 [Example 316, (2S,4R)-1-(Biphenyl-4-sulfonyl)-4-(2-chloro-benzenesulfonyl)-pyrrolidine-2-carboxylic acid (1-cyano-cyclopropyl)-amide] | 0.3 nM | 5240 nM |
| Cc1cc(N2C[C@H](S(=O)(=O)c3ccccc3C(F)(F)F)C[C@H]2C(=O)NC2(C#N)CC2)n(-c2cccnn2)n1 [Example 317, (2S,4R)-1-(5-Methyl-2-pyridazin-3-yl-2H-pyrazol-3-yl)-4-(2-trifluoromethyl-benzenesulfonyl)-pyrrolidine-2-carboxylic acid (1-cyano-cyclopropyl)-amide] | 22.8 nM | ≥ 25000 nM |
| Cc1cc(N2C[C@H](S(=O)(=O)c3ccccc3C(F)(F)F)C[C@H]2C(=O)NC2(C#N)CC2)n(C2CCCCC2)n1 [Example 318, (2S,4R)-1-(2-Cyclohexyl-5-methyl-2H-pyrazol-3-yl)-4-(2-trifluoromethyl-benzenesulfonyl)-pyrrolidine-2-carboxylic acid (1-cyano-cyclopropyl)-amide] | 0.437 nM | 11300 nM |
| Cc1cc(N2C[C@H](S(=O)(=O)c3ccccc3C(F)(F)F)C[C@H]2C(=O)NC2(C#N)CC2)n(Cc2ccccc2)n1 [Example 319, (2S,4R)-1-(2-Benzyl-5-methyl-2H-pyrazol-3-yl)-4-(2-trifluoromethyl-benzenesulfonyl)-pyrrolidine-2-carboxylic acid (1-cyano-cyclopropyl)-amide] | 1.43 nM | 40800 nM |
| Cc1cc(N2C[C@H](S(=O)(=O)c3ccccc3C(F)(F)F)C[C@@H]2C(=O)NC2(C#N)CC2)n(C2CCCCC2)n1 [Example 320, (2R,4R)-1-(2-Cyclohexyl-5-methyl-2H-pyrazol-3-yl)-4-(2-trifluoromethyl-benzenesulfonyl)-pyrrolidine-2-carboxylic acid (1-cyano-cyclopropyl)-amide] | 80.5 nM | ≥ 25000 nM |
| Cc1cc(N2C[C@H](S(=O)(=O)c3ccccc3C(F)(F)F)C[C@@H]2C(=O)NC2(C#N)CC2)n(Cc2ccccc2)n1 [Example 321, (2R,4R)-1-(2-Benzyl-5-methyl-2H-pyrazol-3-yl)-4-(2-trifluoromethyl-benzenesulfonyl)-pyrrolidine-2-carboxylic acid (1-cyano-cyclopropyl)-amide] | 68.3 nM | ≥ 25000 nM |
| Cc1cc(N2C[C@H](S(=O)(=O)c3ccccc3C(F)(F)F)C[C@H]2C(=O)NC2(C#N)CC2)n(C2CCC2)n1 [Example 322, (2S,4R)-1-(2-Cyclobutyl-5-methyl-2H-pyrazol-3-yl)-4-(2-trifluoromethyl-benzenesulfonyl)-pyrrolidine-2-carboxylic acid (1-cyano-cyclopropyl)-amide] | 0.3 nM | 28500 nM |
| N#CC1(NC(=O)[C@@H]2C[C@@H](S(=O)(=O)c3ccccc3Cl)CN2S(=O)(=O)c2ccc(-c3cnco3)cc2)CC1 [Example 323, (2S,4R)-4-(2-Chloro-benzenesulfonyl)-1-(4-oxazol-5-yl-benzenesulfonyl)-pyrrolidine-2-carboxylic acid (1-cyano-cyclopropyl)-amide] | 0.44 nM | 4820 nM |
| N#CC1(NC(=O)[C@@H]2C[C@@H](S(=O)(=O)c3ccc(N4CCC4)cc3Cl)CN2C(=O)C2(c3ccc(Cl)cc3)CC2)CC1 [Example 328, (2S,4R)-4-(4-Azetidin-1-yl-2-chloro-benzenesulfonyl)-1-[1-(4-chloro-phenyl)-cyclopropanecarbonyl]-pyrrolidine-2-carboxylic acid (1-cyano-cyclopropyl)-amide] | 0.16 nM | 130 nM |
| N#CC1(NC(=O)[C@@H]2C[C@@H](S(=O)(=O)c3ccc(OCC(F)(F)F)cc3Cl)CN2C(=O)C2(c3cccc(Cl)c3)CC2)CC1 [Example 331, (2S,4R)-1-[1-(3-Chloro-phenyl)-cyclopropanecarbonyl]-4-[2-chloro-4-(2,2,2-trifluoro-ethoxy)-benzenesulfonyl]-pyrrolidine-2-carboxylic acid (1-cyano-cyclopropyl)-amide] | 0.18 nM | 1050 nM |
